# In patent publication US12325866B2, “Systems and methods for growing cells in vitro” (Yissum Research Development Company of the Hebrew …, priority 2016, dated 2025):
# How the values were obtained:
# CSIF [1] = assay: Dox-induced MyoD1+MYOG conversion to myocytes, rMLC3-GFP reporter; format: cell-based, chicken; conditions: Dox-induced MyoD1+MYOG expression for 11 or 30 days
# Excerpt: FIGS. 5A-E depict conversion of CSIF to myocytes. FIG. 5A—Phase image of CSIF expressing Dox-inducible MyoD1 and Myogenin (MYOG) for 6 days (“d6”). FIGS. 5B-C—CSIF expressing rat myosin light chain COP-GFP reporter (rMLC3-GFP) following Dox-induced MyoD1+MYOG expression for 11 days (FIG. 5B) or 30 days (FIG. 5C). About 2-4% of the cultures become positive for MLC3 (Green). MLC3 positive myoblasts maintain elongated fiber morphology for over 30 days in vitro (FIG. 5C). FIG. 5D—Fluorescence staining using phalloidin (F-Actin probe, green) showing multinucleated cells (syncytia) as well as some striation following 7 days in culture. Nuclei are stained with Hoechst (blue). FIG. 5E—Immunofluorescence staining for α1-skeletal muscle actin (ACTA1, green) and Troponin T (red) showing a clear muscle phenotype by day 7 of induction. Nuclei are stained with Hoechst (blue).
# To examine if similar conversion of chicken cells to myocytes is possible, the present inventor generated several nucleic acid constructs (vectors) as is schematically illustrated in FIGS. 6-8 and 12. […] A second lentiviral vector (SEQ ID NO:2, FIG. 7) was created for Dox-inducible chicken MYOG expression included the cMyogenin coding sequence (SEQ ID NO: 7) under the control of the minimal CMV promoter (SEQ ID NO: 8). […]
# CSIF [2] = assay: Serum-free medium development: sulforhodamine B stain and protein content after 72 hours; format: cell-based, chicken; conditions: for Effect on CSIF growth / proliferation: supplement added to minimal serum-free medium, bFGF 10 ng/ml, EGF 5 ng/ml, PGE2 0.01 μM, GH 10 ng/ml
# Procedure: FIGS. 3A-F depict the development and identification of serum-free medium for CSIF propagation. Shown are sulforhodamine B stain (FIGS. 3A-E) and protein content quantification (FIG. 3F) following 72 hours of culture with 15% serum (“FBS”), minimal serum-free medium (MIN) alone (FIG. 3B) or with 10 ng/ml basic Fibroblast Growth Factor (bFGF, FIG. 3C), 5 ng/ml Epidermal Growth Factor (EGF, FIG. 3D), 0.01 μM Prostaglandin E2 (PGE2, FIG. 3E), or 10 ng/ml Growth Hormone. Serum-free medium (SFM) contained MIN medium supplemented with bFGF (10 ng/ml), EGF (5 ng/ml), and PGE2 ([…]).
# (§1) To develop a serum-free medium that supports the culture of CEF and CS IF, the present inventor formulated a minimal medium composed of DMEM/F12 supplemented with 0.1 μM dexamethasone, 10 μg/ml insulin, 5.5 μg/ml transferrin, and 5 ng/ml selenium (ITS), 12 μM linoleic and 12 μM oleic acids, and 2 mM of L-Analyl-L-Glutamine. Cells were plated in FBS containing medium, and transferred to minimal medium after overnight attachment. Basal medium was supplemented with growth factors and hormones showing that while heparin and T3 had little effect of CSIF growth (data not shown), the addition of basic Fibroblast Growth Factor (bFGF, 10 ng/ml) was essential (FIGS. 3C and 3F), showing 20±2 hours doubling time (data not shown).
# [3] = tested on: primary chicken embryonic fibroblasts (CEF); assay: Proliferation of primary CEF in serum-free media / with supplements; format: cell-based; conditions: serum-free medium, or minimal medium plus supplement (EGF 5 ng/ml, PGE2 0.01 μM, GH 10 ng/ml)
# Procedure: as §1, with “The CSIFs readily grow on tissue culture plastic in DMEM/F12 medium supplemented with 15% FBS, and 2 mM of […] (FIG. 2D). There are several serum-free medium formulations for the growth of human and mouse fibroblasts, including PCS-201-040 (ATCC) and […] To” for “To”, “[…].” for “L-Analyl-L-Glutamine.”
# CSIF [4] = assay: Conversion of CSIF to adipocytes in serum-free medium (LipidTOX neutral lipid stain); format: cell-based, chicken
# Procedure: FIGS. 4A-D depict conversion of CSIF to adipocytes in serum-free medium. FIGS. 4A-C. LipidTOX™ (Thermo Fisher Scientific) neutral lipid stain of serum-free cultures of CSIF exposed to either 400 μM oleic acid (OA) alone (FIG. 4A) or with 0.5 mM IBMX (OA+IBMX, FIG. 4B), or 10 μM Rosiglitazone (OA+TZD, FIG. 4C) for 7 days. […] FIG. 4D—Normalized intracellular lipid content (in arbitrary fluorescent units) of CSIF cultures treated for 4 and 7 days as prescribed above.
# To develop a protocol for conversion of the spontaneously immortalized chicken fibroblasts (CSIF line) under serum-free conditions, the present inventor seeded the CSIF at 70% confluence in the optimized serum-free DMEM/F12 medium supplemented with dexamethasone (0.1 μM), 1×ITS+3 (Sigma, 12771), and bFGF (10 ng/ml). The CSIF cells were treated for 4 or 7 days with 200 to 400 μM oleic acid alone, or in combination with 0.5 mM IBMX, or 10 μM of the FDA-approved small molecule Rosiglitazone.
# [5] = tested on: stromal-vascular cells derived from chicken adipose tissues; conditions: oleic acid 200-400 μM, in the presence of serum; cited from earlier work
# primary CEF = conditions: oleic acid 400 μM with 20% serum; selenium 100-300 μg/l with 2% serum; cited from earlier work
compound,measurement,setting,value
"C[C@H]1c2cccc(O)c2C(=O)C2=C(O)[C@]3(O)C(=O)C(C(N)=O)=C(O)[C@@H](N(C)C)[C@@H]3[C@@H](O)[C@@H]21 [doxycycline, Doxycycline]",Cultures positive for MLC3,CSIF [1],2-4%
heparin,Effect on CSIF growth / proliferation,CSIF [2],little effect
"CCCCC[C@H](O)/C=C/[C@H]1[C@H](O)CC(=O)[C@@H]1C/C=C\CCCC(=O)O [PGE2, Prostaglandin E2]",Proliferation of primary CEF,[3],supported the proliferation
same,Effect on CSIF growth / proliferation,CSIF [2],supported the proliferation
"CC(C)Cn1c(=O)n(C)c(=O)c2[nH]cnc21 [IBMX, 3-isobutyl-1-methylxanthine]",Normalized intracellular lipid content,"CSIF [4]; 4 and 7 days, 400 μM OA with small molecule (FIG. 4D)",optimal results
same,Adipogenesis (neutral lipid stain),"CSIF [4]; 7 days, with 400 μM oleic acid, IBMX 0.5 mM, Rosiglitazone 10 μM",strong adipogenesis
same,Adipogenic phenotype (cell shape),"CSIF [4]; added to oleic acid, IBMX 0.5 mM, Rosiglitazone 10 μM",supported a rounded adipogenic phenotype
same,Differentiation of chicken preadipocytes to adipocytes,[5],no affect
CCCCCCCC/C=C\CCCCCCCC(=O)O [oleic acid],Lipid accumulation,"CSIF [4]; 200 to 400 μM oleic acid, 4 or 7 days, serum-free",increased lipid accumulation
same,Differentiation of chicken preadipocytes to adipocytes,[5],induces their differentiation to adipocytes
same,Lipid accumulation in primary CEF,primary CEF,induced lipid accumulation
bFGF: basic fibroblast growth factor,Doubling time,CSIF [2]; minimal medium plus bFGF 10 ng/ml (data not shown),20 ± 2 h
same,Effect on CSIF growth / proliferation,CSIF [2],essential
N[C@@H](Cc1cc(I)c(Oc2ccc(O)c(I)c2)c(I)c1)C(=O)O [T3],Effect on CSIF growth / proliferation,CSIF [2],little effect
GH: Growth Hormone,Proliferation of primary CEF,[3],supported the proliferation
same,Effect on CSIF growth / proliferation,CSIF [2],supported the proliferation
